{
  "source": "patent US11945806B2",
  "about": "“Stabilization of amyloidogenic immunoglobulin light chains” (The Scripps Research Institute, priority 2019, dated 2024)",
  "data": [
    {"biological_target": "WIL-FL (Homo sapiens, UniProt P01721)", "experiment": "Unlabeled LC Protease Sensitivity Assay (proteinase K)", "type": "biochemical", "conditions": "small molecule 10 μM, WIL-FL 5 μM, proteinase K 50 nM, 2 hours at 37° C.", "protocol": "Unlabeled LC Protease Sensitivity Assay. WIL-FL (5 μM) in phosphate-buffered saline (PBS, pH 7.4)+0.02% Pluronic F-127 was incubated with proteinase K (50 nM) with small molecule (10 μM) in 1% DMSO vehicle, or vehicle alone. After 2 hours at 37° C., reactions were quenched with 2 mM phenylmethyl sulfonyl fluoride in methanol and centrifuged at 14,000 rpm for 2 minutes. Remaining WIL-FL was quantified by injecting 10 μL of the supernatant into a Waters Acquity H-Class Bio-UPLC (ultra performance liquid chromatography) instrument equipped with a BEH200 analytical size-exclusion column (1.7 μm, 4.6×150 mm) under isocratic conditions (0.2 mL/min, PBS+1 mM EDTA, 2400 psi backpressure, 15 min), monitoring absorbance at 280 nm. Activity of each compound is given as fold protection from protease=(A_compound−A_vehicle)/(A_no_protease−A_vehicle), where each “A” corresponds to peak integration of the respective treatment.", "values": [
      {"smiles": "Cc1cc(=O)oc2cc(OCC(C)c3ccccc3)ccc12", "note": "(stereo not shown) [Compound 43, 4-methyl-7-(2-phenylpropoxy)-2H-chromen-2-one]", "Protection (fold protection of LC from protease)": "B (3 ≤ B < 0.6)"},
      {"smiles": "Cc1cc(=O)oc2cc(C(=O)NCc3ccc4[nH]ccc4c3)ccc12", "note": "[Compound 237, N-((1H-indol-5-yl)methyl)-4-methyl-2-oxo-2H-chromene-7-carboxamide]", "Protection (fold protection of LC from protease)": "A (A < 0.3))"},
      {"smiles": "CCN(CC)c1ccc2c(C)c(CCN3C(=O)NC4(CCN(c5ncnc6[nH]ncc56)CC4)C3=O)c(=O)oc2c1", "note": "[Compound 192, 3-(2-(7-(diethylamino)-4-methyl-2-oxo-2H-chromen-3-yl)ethyl)-8-(1H-pyrazolo[3,4-d]pyrimidin-4-yl)-1,3,8-triazaspiro[4.5]decane-2,4-dione]", "Protection (fold protection of LC from protease)": "C (C ≥ 0.6)"},
      {"smiles": "CCN(CC)c1ccc2c(C)c(CCNC(=O)NCc3cncc4ccccc34)c(=O)oc2c1", "note": "[Compound 289, 1-(2-(7-(diethylamino)-4-methyl-2-oxo-2H-chromen-3-yl)ethyl)-3-(isoquinolin-4-ylmethyl)urea]", "Protection (fold protection of LC from protease)": "C (C ≥ 0.6)"},
      {"smiles": "C=CCCNc1ccc2c(C)cc(=O)oc2c1", "note": "[Compound 247, 7-(but-3-en-1-ylamino)-4-methyl-2H-chromen-2-one]", "Protection (fold protection of LC from protease)": "A (A < 0.3))"},
      {"smiles": "Cc1cc(=O)oc2cc(OC(C)c3ccccn3)ccc12", "note": "(stereo not shown) [Compound 174, 4-methyl-7-(1-(pyridin-2-yl)ethoxy)-2H-chromen-2-one]", "Protection (fold protection of LC from protease)": "A (A < 0.3))"},
      {"smiles": "CCN(CC)c1ccc2c(C)c(CCNC(=O)CCc3ccccc3)c(=O)oc2c1", "note": "[Compound 70, N-(2-(7-(diethylamino)-4-methyl-2-oxo-2H-chromen-3-yl)ethyl)-3-phenylpropanamide]", "Protection (fold protection of LC from protease)": "A (A < 0.3))"},
      {"smiles": "CCN(CC)c1ccc2c(C)c(CCOC(=O)NCc3ncccn3)c(=O)oc2c1", "note": "[Compound 93, 2-(7-(diethylamino)-4-methyl-2-oxo-2H-chromen-3-yl)ethyl (pyrimidin-2-ylmethyl)carbamate]", "Protection (fold protection of LC from protease)": "B (3 ≤ B < 0.6)"},
      {"smiles": "Cc1cc(=O)oc2cc(OC(C)c3cnccn3)ccc12", "note": "(stereo not shown) [Compound 173, 4-methyl-7-(1-(pyrazin-2-yl)ethoxy)-2H-chromen-2-one]", "Protection (fold protection of LC from protease)": "A (A < 0.3))"},
      {"smiles": "CCN(CC)c1ccc2c(C)c(CCNC(=O)NCc3cccc(C(N)=O)c3)c(=O)oc2c1", "note": "[Compound 298, 3-((3-(2-(7-(diethylamino)-4-methyl-2-oxo-2H-chromen-3-yl)ethyl)ureido)methyl)benzamide]", "Protection (fold protection of LC from protease)": "B (3 ≤ B < 0.6)"},
      {"smiles": "CCN(CC)c1ccc2c(C)c(CCOC(=O)NCc3cccc(-c4cccnc4)c3)c(=O)oc2c1", "note": "[Compound 161, 2-(7-(diethylamino)-4-methyl-2-oxo-2H-chromen-3-yl)ethyl (3-(pyridin-3-yl)benzyl)carbamate]", "Protection (fold protection of LC from protease)": "C (C ≥ 0.6)"},
      {"smiles": "Cc1cc(=O)oc2cc(NCC3CC3)ccc12", "note": "[Compound 246, 7-((cyclopropylmethyl)amino)-4-methyl-2H-chromen-2-one]", "Protection (fold protection of LC from protease)": "A (A < 0.3))"},
      {"smiles": "CCCN(CCC)c1ccc2c(C)cc(=O)oc2c1", "note": "[Compound 241, 7-(dipropylamino)-4-methyl-2H-chromen-2-one]", "Protection (fold protection of LC from protease)": "A (A < 0.3))"},
      {"smiles": "CCN(CC)c1ccc2c(C)c(CCOC(=O)NCc3ccco3)c(=O)oc2c1", "note": "[Compound 87, 2-(7-(diethylamino)-4-methyl-2-oxo-2H-chromen-3-yl)ethyl (furan-2-ylmethyl)carbamate]", "Protection (fold protection of LC from protease)": "B (3 ≤ B < 0.6)"},
      {"smiles": "CCN(CC)c1ccc2c(C)c(CCN3C(=O)NC4(CCN(C(=O)c5ccc[nH]c5=O)C4)C3=O)c(=O)oc2c1", "note": "(stereo not shown) [Compound 182, 3-(2-(7-(diethylamino)-4-methyl-2-oxo-2H-chromen-3-yl)ethyl)-7-(2-oxo-1,2-dihydropyridine-3-carbonyl)-1,3,7-triazaspiro[4.4]nonane-2,4-dione]", "Protection (fold protection of LC from protease)": "B (3 ≤ B < 0.6)"},
      {"smiles": "CCN(CC)c1ccc2c(C)c(CCOC(=O)NCc3cccc(C(=O)O)c3)c(=O)oc2c1", "note": "[Compound 123, 3-((((2-(7-(diethylamino)-4-methyl-2-oxo-2H-chromen-3-yl)ethoxy)carbonyl)amino)methyl)benzoic acid]", "Protection (fold protection of LC from protease)": "B (3 ≤ B < 0.6)"},
      {"smiles": "CCN(CC)c1ccc2c(C)c(CCN3C(=O)NC4(CCN(C(=O)c5cnccn5)CC4)C3=O)c(=O)oc2c1", "note": "[Compound 212, 3-(2-(7-(diethylamino)-4-methyl-2-oxo-2H-chromen-3-yl)ethyl)-8-(pyrazine-2-carbonyl)-1,3,8-triazaspiro[4.5]decane-2,4-dione]", "Protection (fold protection of LC from protease)": "B (3 ≤ B < 0.6)"},
      {"smiles": "CCN(CC)c1ccc2c(C)c(CCN3C(=O)NC4(CCN(S(=O)(=O)c5ccccc5)C4)C3=O)c(=O)oc2c1", "note": "(stereo not shown) [Compound 201, 3-(2-(7-(diethylamino)-4-methyl-2-oxo-2H-chromen-3-yl)ethyl)-7-(phenylsulfonyl)-1,3,7-triazaspiro[4.4]nonane-2,4-dione]", "Protection (fold protection of LC from protease)": "B (3 ≤ B < 0.6)"},
      {"smiles": "CCN(CC)c1ccc2c(C)c(CCNC(=O)CCc3ccncc3)c(=O)oc2c1", "note": "[Compound 96, N-(2-(7-(diethylamino)-4-methyl-2-oxo-2H-chromen-3-yl)ethyl)-3-(pyridin-4-yl)propanamide]", "Protection (fold protection of LC from protease)": "A (A < 0.3))"},
      {"smiles": "CCN(CC)c1ccc2c(C)c(CCOC(=O)NCc3ccc4nc[nH]c4c3)c(=O)oc2c1", "note": "[Compound 142, 2-(7-(diethylamino)-4-methyl-2-oxo-2H-chromen-3-yl)ethyl ((1H-benzo[d]imidazol-6-yl)methyl)carbamate]", "Protection (fold protection of LC from protease)": "C (C ≥ 0.6)"},
      {"smiles": "CCCN(CC)c1ccc2c(C)cc(=O)oc2c1", "note": "[Compound 275, 7-(ethyl(propyl)amino)-4-methyl-2H-chromen-2-one]", "Protection (fold protection of LC from protease)": "A (A < 0.3))"},
      {"smiles": "CCN(CC)c1ccc2c(CCCOC(=O)NCc3cccc(CCC(=O)OC)c3)cc(=O)oc2c1", "note": "[Compound 306, Methyl 3-(3-((((3-(7-(diethylamino)-2-oxo-2H-chromen-4yl)propoxy)carbonyl)amino)methyl)phenyl)propanoate]", "Protection (fold protection of LC from protease)": "A (A < 0.3))"},
      {"smiles": "Cc1cc(=O)oc2cc(N(CCCF)CCCF)ccc12", "note": "[Compound 250, 7-(bis(3-fluoropropyl)amino)-4-methyl-2H-chromen-2-one]", "Protection (fold protection of LC from protease)": "A (A < 0.3))"},
      {"smiles": "CCN(CC)c1ccc2c(C)c(CCN3C(=O)NC4(CCN(c5ccc(C#N)cn5)CC4)C3=O)c(=O)oc2c1", "note": "[Compound 191, 6-(3-(2-(7-(diethylamino)-4-methyl-2-oxo-2H-chromen-3-yl)ethyl)-2,4-dioxo-1,3,8-triazaspiro[4.5]decan-8-yl)nicotinonitrile]", "Protection (fold protection of LC from protease)": "A (A < 0.3))"},
      {"smiles": "CCN(CC)c1ccc2c(C)c(CC(=O)NCCCCc3ccccc3)c(=O)oc2c1", "note": "[Compound 57, 2-(7-(diethylamino)-4-methyl-2-oxo-2H-chromen-3-yl)-N-(4-phenylbutyl)acetamide]", "Protection (fold protection of LC from protease)": "A (A < 0.3))"},
      {"smiles": "CCN(CC)c1ccc2c(C)c(CCNC(=O)OCc3cccnc3)c(=O)oc2c1", "note": "[Compound 100, Pyridin-3-ylmethyl (2-(7-(diethylamino)-4-methyl-2-oxo-2H-chromen-3-yl)ethyl)carbamate]", "Protection (fold protection of LC from protease)": "A (A < 0.3))"},
      {"smiles": "CCN(CC)c1ccc2c(C)c(CCN3C(=O)NC4(CCN(S(=O)(=O)CC)C4)C3=O)c(=O)oc2c1", "note": "(stereo not shown) [Compound 203, 3-(2-(7-(diethylamino)-4-methyl-2-oxo-2H-chromen-3-yl)ethyl)-7-(ethylsulfonyl)-1,3,7-triazaspiro[4.4]nonane-2,4-dione]", "Protection (fold protection of LC from protease)": "C (C ≥ 0.6)"},
      {"smiles": "CCN(CC)c1ccc2c(C)c(CCN3C(=O)NC4(CCN(C(=O)c5ccc(C(N)=O)cc5)CC4)C3=O)c(=O)oc2c1", "note": "[Compound 198, 4-(3-(2-(7-(diethylamino)-4-methyl-2-oxo-2H-chromen-3-yl)ethyl)-2,4-dioxo-1,3,8-triazaspiro[4.5]decane-8-carbonyl)benzamide]", "Protection (fold protection of LC from protease)": "B (3 ≤ B < 0.6)"},
      {"smiles": "CCN(CC)c1ccc2c(C)c(CCN3C(=O)NC4(CCN(S(=O)(=O)NC)C4)C3=O)c(=O)oc2c1", "note": "(stereo not shown) [Compound 204, 3-(2-(7-(diethylamino)-4-methyl-2-oxo-2H-chromen-3-yl)ethyl)-N-methyl-2,4-dioxo-1,3,7-triazaspiro[4.4]nonane-7-sulfonamide]", "Protection (fold protection of LC from protease)": "B (3 ≤ B < 0.6)"},
      {"smiles": "C#CCN(CCC=C)c1ccc2c(C)cc(=O)oc2c1", "note": "[Compound 263, 7-(but-3-en-1-yl(prop-2-yn-1-yl)amino)-4-methyl-2H-chromen-2-one]", "Protection (fold protection of LC from protease)": "A (A < 0.3))"},
      {"smiles": "CCN(CC)c1ccc2c(C(F)(F)F)cc(=O)oc2c1", "note": "[Compound 24]", "Protection (fold protection of LC from protease)": "A (A < 0.3))"},
      {"smiles": "Cc1cc(=O)oc2cc(C(=O)NCc3c[nH]c4ccccc34)ccc12", "note": "[Compound 236, N-((1H-indol-3-yl)methyl)-4-methyl-2-oxo-2H-chromene-7-carboxamide]", "Protection (fold protection of LC from protease)": "A (A < 0.3))"},
      {"smiles": "CCN(CC)c1ccc2c(C)c(CCNC(=O)NCc3cccc(S(N)(=O)=O)c3)c(=O)oc2c1", "note": "[Compound 299, 3-((3-(2-(7-(diethylamino)-4-methyl-2-oxo-2H-chromen-3-yl)ethyl)ureido)methyl)benzenesulfonamide]", "Protection (fold protection of LC from protease)": "B (3 ≤ B < 0.6)"},
      {"smiles": "Cc1cc(=O)oc2cc(NCCCc3ccccc3)ccc12", "note": "[Compound 30, 4-methyl-7-((3-phenylpropyl)amino)-2H-chromen-2-one]", "Protection (fold protection of LC from protease)": "A (A < 0.3))"}
    ]}
  ]
}
